Values quoted from earlier work as cited in patent US20090088424A1, “METHODS AND COMPOSITIONS FOR CONTROLLING THE BIOAVAILABILITY OF POORLY SOLUBLE DRUGS” (priority 2007, published 2009).
In brackets after ≈: the same amount, converted by molar mass.

Settings: pH 8.7, 25° C.

- aqueous solubility: 9.2 µg/mL (≈ 29.1 µM)
SMILES: O=C1Nc2ccc(Cl)cc2[C@@](C#CC2CC2)(C(F)(F)F)O1 [Efavirenz, (S)-6-chloro-4-(cyclopropylethynyl)-1,4-dihydro-4-(trifluoromethyl)-2H-3,1-benzoxazin-2-one]
